Data published in ChEMBL document CHEMBL3046635, “Synthesis and Herbicidal Activity of New Pyrazole-4-carboxamide Derivatives” (J Pestic Sci, 2004).
Calls of active or inactive are those of the source.

Columns and labels:
[1] = test system: Oryza sativa; test: Phytotoxicity against Oryza sativa cv. Koshihikari (rice) at 500 g a.i/ha measured after 14 days; format: organism-based; settings: in vivo, 336 h
[2] = test system: Eleocharis acicularis; test: Pre-emergence herbicidal activity against Eleocharis acicularis at 500 g a.i/ha measured after 14 days; format: functional, organism-based
[3] = test system: Pontederia vaginalis; test: Pre-emergence herbicidal activity against Monochoria vaginalis at 500 g a.i/ha measured after 14 days; format: functional, organism-based
[4] = test system: Schoenoplectiella juncoides; test: Pre-emergence herbicidal activity against Schoenoplectiella juncoides at 500 g a.i/ha measured after 14 days; format: functional, organism-based
[5] = test system: Ammannia multiflora; test: Pre-emergence herbicidal activity against Ammannia multiflora at 500 g a.i/ha measured after 14 days; format: functional, organism-based
[6] = test system: Elatine triandra; test: Pre-emergence herbicidal activity against Elatine triandra at 500 g a.i/ha measured after 14 days; format: functional, organism-based
[7] = test system: Rotala indica; test: Pre-emergence herbicidal activity against Rotala indica at 500 g a.i/ha measured after 14 days; format: functional, organism-based
[8] = test system: Lindernia procumbens; test: Pre-emergence herbicidal activity against Lindernia procumbens at 500 g a.i/ha measured after 14 days; format: functional, organism-based
[9] = test system: Echinochloa oryzicola; test: Pre-emergence herbicidal activity against Echinochloa oryzicola at 500 g a.i/ha measured after 14 days; format: functional, organism-based
[10] = test system: Cyperus difformis; test: Pre-emergence herbicidal activity against Cyperus difformis at 500 g a.i/ha measured after 14 days; format: functional, organism-based
[11] = test system: Eleocharis acicularis; test: Post-emergence herbicidal activity against Eleocharis acicularis assessed as bleaching of stem/leaf parts; format: functional, organism-based; further: test concentration or dose not given here
[12] = test system: Eleocharis acicularis; test: Pre-emergence herbicidal activity against Eleocharis acicularis assessed as bleaching of stem/leaf parts; format: functional, organism-based
[13] = test system: Ammannia multiflora; test: Pre-emergence herbicidal activity against Ammannia multiflora assessed as bleaching of stem/leaf parts; format: functional, organism-based
[14] = test system: Rotala indica; test: Pre-emergence herbicidal activity against Rotala indica assessed as bleaching of stem/leaf parts; format: functional, organism-based
[15] = test system: Elatine triandra; test: Pre-emergence herbicidal activity against Elatine triandra assessed as bleaching of stem/leaf parts; format: functional, organism-based
[16] = test system: Lindernia procumbens; test: Pre-emergence herbicidal activity against Lindernia procumbens assessed as bleaching of stem/leaf parts; format: functional, organism-based
[17] = test system: Schoenoplectiella juncoides; test: Pre-emergence herbicidal activity against Schoenoplectiella juncoides assessed as bleaching of stem/leaf parts; format: functional, organism-based
[18] = test system: Pontederia vaginalis; test: Pre-emergence herbicidal activity against Monochoria vaginalis assessed as bleaching of stem/leaf parts; format: functional, organism-based
[19] = test system: Cyperus difformis; test: Pre-emergence herbicidal activity against Cyperus difformis assessed as bleaching of stem/leaf parts; format: functional, organism-based
[20] = test system: Echinochloa oryzicola; test: Pre-emergence herbicidal activity against Echinochloa oryzicola assessed as bleaching of stem/leaf parts; format: functional, organism-based
[21] = test system: Ammannia multiflora; test: Post-emergence herbicidal activity against Ammannia multiflora assessed as bleaching of stem/leaf parts; format: functional, organism-based; further: test concentration or dose not given here
[22] = test system: Elatine triandra; test: Post-emergence herbicidal activity against Elatine triandra assessed as bleaching of stem/leaf parts; format: functional, organism-based; further: test concentration or dose not given here
[23] = test system: Rotala indica; test: Post-emergence herbicidal activity against Rotala indica assessed as bleaching of stem/leaf parts; format: functional, organism-based; further: test concentration or dose not given here
[24] = test system: Schoenoplectiella juncoides; test: Post-emergence herbicidal activity against Schoenoplectiella juncoides assessed as bleaching of stem/leaf parts; format: functional, organism-based; further: test concentration or dose not given here
[25] = test system: Lindernia procumbens; test: Post-emergence herbicidal activity against Lindernia procumbens assessed as bleaching of stem/leaf parts; format: functional, organism-based; further: test concentration or dose not given here
[26] = test system: Pontederia vaginalis; test: Post-emergence herbicidal activity against Monochoria vaginalis assessed as bleaching of stem/leaf parts; format: functional, organism-based; further: test concentration or dose not given here
[27] = test system: Cyperus difformis; test: Post-emergence herbicidal activity against Cyperus difformis assessed as bleaching of stem/leaf parts; format: functional, organism-based; further: test concentration or dose not given here
[28] = test system: Echinochloa oryzicola; test: Post-emergence herbicidal activity against Echinochloa oryzicola assessed as bleaching of stem/leaf parts; format: functional, organism-based; further: test concentration or dose not given here

`Cn1cc(C(=O)N2CCCC2)c(OCc2cccc(C(F)(F)F)c2)n1` was tested. Which Activity [1] did it give?
Its Activity is “Non-toxic”.

What about the Activity [2] of the same compound?
The Activity was “inactive”.

And the Activity [3]?
Its Activity is “inactive”.

What about the Activity [4] of the same compound?
The Activity was “inactive”.

What about the Activity [5] of the same compound?
Its Activity is “inactive”.

What about the Activity [6] of the same compound?
The Activity was “inactive”.

And the Activity [7]?
Its Activity is “inactive”.

And the Activity [8]?
Its Activity is “inactive”.

And the Activity [9]?
Its Activity is “inactive”.

What about the Activity [10] of the same compound?
The Activity was “inactive”.

What about the Activity [11] of the same compound?
Its Activity is “Active”.

What about the Activity [12] of the same compound?
Its Activity is “Active”.

What about the Activity [13] of the same compound?
The Activity was “Active”.

What about the Activity [14] of the same compound?
The Activity was “Active”.

And the Activity [15]?
Its Activity is “Active”.

And the Activity [16]?
The Activity was “Active”.

And the Activity [17]?
The Activity was “Active”.

And the Activity [18]?
Its Activity is “Active”.

What about the Activity [19] of the same compound?
The Activity was “Active”.

What about the Activity [20] of the same compound?
The Activity was “Active”.

What about the Activity [21] of the same compound?
The Activity was “Active”.

What about the Activity [22] of the same compound?
Its Activity is “Active”.

What about the Activity [23] of the same compound?
Its Activity is “Active”.

What about the Activity [24] of the same compound?
The Activity was “Active”.

What about the Activity [25] of the same compound?
Its Activity is “Active”.

And the Activity [26]?
Its Activity is “Active”.

And the Activity [27]?
The Activity was “Active”.

And the Activity [28]?
The Activity was “Active”.

Which Activity [1] does the source give for `CCN(C(=O)c1cn(C)nc1OCc1cccc(C(F)(F)F)c1)C1CCCCC1` here?
Its Activity is “Non-toxic”.

And the Activity [2]?
Its Activity is “inactive”.

And the Activity [3]?
Its Activity is “inactive”.

What about the Activity [4] of the same compound?
The Activity was “inactive”.

And the Activity [5]?
The Activity was “inactive”.

And the Activity [6]?
The Activity was “inactive”.

What about the Activity [7] of the same compound?
The Activity was “inactive”.

And the Activity [8]?
Its Activity is “inactive”.

What about the Activity [9] of the same compound?
Its Activity is “inactive”.

And the Activity [10]?
Its Activity is “inactive”.

And the Activity [11]?
The Activity was “Active”.

What about the Activity [12] of the same compound?
Its Activity is “Active”.

And the Activity [13]?
Its Activity is “Active”.

And the Activity [14]?
Its Activity is “Active”.

And the Activity [15]?
The Activity was “Active”.

And the Activity [16]?
The Activity was “Active”.

What about the Activity [17] of the same compound?
The Activity was “Active”.

What about the Activity [18] of the same compound?
Its Activity is “Active”.

And the Activity [19]?
Its Activity is “Active”.

What about the Activity [20] of the same compound?
The Activity was “Active”.

What about the Activity [21] of the same compound?
Its Activity is “Active”.

What about the Activity [22] of the same compound?
Its Activity is “Active”.

What about the Activity [23] of the same compound?
The Activity was “Active”.

What about the Activity [24] of the same compound?
The Activity was “Active”.

And the Activity [25]?
The Activity was “Active”.

What about the Activity [26] of the same compound?
Its Activity is “Active”.

What about the Activity [27] of the same compound?
The Activity was “Active”.

What about the Activity [28] of the same compound?
The Activity was “Active”.

What does the source list for `CCONC(=O)c1cn(C(C)(C)C)nc1OCc1cccc(C(F)(F)F)c1`?
Activity [1]: Non-toxic; Activity [2]: inactive; Activity [3]: inactive; Activity [4]: inactive; Activity [5]: inactive; Activity [6]: inactive; Activity [7]: inactive; Activity [8]: inactive; Activity [9]: inactive; Activity [10]: inactive; Activity [11]: Active; Activity [12]: Active; Activity [13]: Active; Activity [14]: Active; Activity [15]: Active; Activity [16]: Active; Activity [17]: Active; Activity [18]: Active; Activity [19]: Active; Activity [20]: Active; Activity [21]: Active; Activity [22]: Active; Activity [23]: Active; Activity [24]: Active; Activity [25]: Active; Activity [26]: Active; Activity [27]: Active; Activity [28]: Active

How did the Activity [1] turn out when `C#CCNC(=O)c1cn(C)nc1OCc1cccc(C(F)(F)F)c1` was run?
The Activity was “Non-toxic”.

What about the Activity [2] of the same compound?
The Activity was “inactive”.

And the Activity [3]?
The Activity was “inactive”.

What about the Activity [4] of the same compound?
The Activity was “inactive”.

What about the Activity [5] of the same compound?
Its Activity is “inactive”.

And the Activity [6]?
Its Activity is “inactive”.

What about the Activity [7] of the same compound?
Its Activity is “inactive”.

What about the Activity [8] of the same compound?
Its Activity is “inactive”.

And the Activity [9]?
The Activity was “inactive”.

And the Activity [10]?
Its Activity is “inactive”.

What about the Activity [11] of the same compound?
The Activity was “Active”.

And the Activity [12]?
Its Activity is “Active”.

What about the Activity [13] of the same compound?
The Activity was “Active”.

And the Activity [14]?
Its Activity is “Active”.

What about the Activity [15] of the same compound?
The Activity was “Active”.

What about the Activity [16] of the same compound?
Its Activity is “Active”.

What about the Activity [17] of the same compound?
The Activity was “Active”.

And the Activity [18]?
The Activity was “Active”.

And the Activity [19]?
Its Activity is “Active”.

And the Activity [20]?
The Activity was “Active”.

What about the Activity [21] of the same compound?
The Activity was “Active”.

What about the Activity [22] of the same compound?
The Activity was “Active”.

What about the Activity [23] of the same compound?
The Activity was “Active”.

And the Activity [24]?
The Activity was “Active”.

What about the Activity [25] of the same compound?
Its Activity is “Active”.

What about the Activity [26] of the same compound?
The Activity was “Active”.

What about the Activity [27] of the same compound?
The Activity was “Active”.

What about the Activity [28] of the same compound?
Its Activity is “Active”.

With `Cn1cc(C(=O)Nc2ccc(C(F)(F)F)cc2)c(OCc2cccc(C(F)(F)F)c2)n1` as the compound, how does the Activity [1] read?
The Activity was “Non-toxic”.

And the Activity [2]?
The Activity was “Active”.

And the Activity [3]?
Its Activity is “Active”.

And the Activity [4]?
The Activity was “inactive”.

What about the Activity [5] of the same compound?
The Activity was “Active”.

And the Activity [6]?
Its Activity is “Active”.

What about the Activity [7] of the same compound?
The Activity was “Active”.

What about the Activity [8] of the same compound?
The Activity was “Active”.

What about the Activity [9] of the same compound?
The Activity was “inactive”.

What about the Activity [10] of the same compound?
The Activity was “inactive”.

And the Activity [11]?
The Activity was “Active”.

And the Activity [12]?
The Activity was “Active”.

And the Activity [13]?
Its Activity is “Active”.

And the Activity [14]?
Its Activity is “Active”.

And the Activity [15]?
Its Activity is “Active”.

What about the Activity [16] of the same compound?
Its Activity is “Active”.

And the Activity [17]?
The Activity was “Active”.

What about the Activity [18] of the same compound?
The Activity was “Active”.

And the Activity [19]?
Its Activity is “Active”.

What about the Activity [20] of the same compound?
The Activity was “Active”.

And the Activity [21]?
Its Activity is “Active”.

And the Activity [22]?
Its Activity is “Active”.

And the Activity [23]?
Its Activity is “Active”.

And the Activity [24]?
Its Activity is “Active”.

And the Activity [25]?
Its Activity is “Active”.

What about the Activity [26] of the same compound?
Its Activity is “Active”.

And the Activity [27]?
The Activity was “Active”.

And the Activity [28]?
The Activity was “Active”.

What does the source list for `CCCn1cc(C(=O)NOCC)c(OCc2cccc(C(F)(F)F)c2)n1`?
Activity [1]: Non-toxic; Activity [2]: inactive; Activity [3]: inactive; Activity [4]: inactive; Activity [5]: inactive; Activity [6]: inactive; Activity [7]: inactive; Activity [8]: inactive; Activity [9]: inactive; Activity [10]: inactive; Activity [11]: Active; Activity [12]: Active; Activity [13]: Active; Activity [14]: Active; Activity [15]: Active; Activity [16]: Active; Activity [17]: Active; Activity [18]: Active; Activity [19]: Active; Activity [20]: Active; Activity [21]: Active; Activity [22]: Active; Activity [23]: Active; Activity [24]: Active; Activity [25]: Active; Activity [26]: Active; Activity [27]: Active; Activity [28]: Active
